# Measured values as given in US8609730B2, “Rel inhibitors and methods of use thereof” (The Trustees of the University of Pennsylvania, priority 2008, dated 2013).
# Entries after “also recorded” stand apart in the source; their conditions may differ.
# How the values were obtained:
# [1] = system: spleen cells of B6 mice; test: Cytokine production by spleen cells treated with anti-CD3 antibody (ELISA); assay type: cell-based
# Protocol: FIG. 1. FIG. 1A depicts a graph showing the IL-2 inhibitory effect of R13D (compound III), R13096 (compound CXX), and R13015 (compound VI). FIG. 1B depicts a graph showing the IFN-gamma inhibitory effect of R13D (compound III), R13096 (compound CXX), and R13015 (compound VI).
# FIG. 3. Depicts a graph showing Splenocytes that were cultured under various conditions as indicated on the X-axis. Twenty-four hours later, cytokines in the supernatant were determined by ELISA (R13D is compound III, R31C. is compound IV, R32D is compound VII).
# To determine whether these inhibitors are effective in suppressing cytokine production by inflammatory cells, spleen cells of B6 mice were treated with anti-CD3 antibody (to activate the inflammatory cells) with or without different concentrations of the compounds. […] As further shown in FIG. 1 IL-2 and IFN-gamma were inhibited by […], and compound VI at concentrations ranging from 5-20 μM.
# [2] = system: splenocytes or purified CD4+ splenic T cells of C57BL/6 mice; test: Cell-based assay for testing c-Rel blockers: cytokine expression with anti-CD3 and anti-CD28; design: IL-4 in culture: dose or concentration left out as unconfirmed; settings: for IL-2 production by T cells (IL-2 release assay, secondary screening): hits of virtual screening
# Protocol: (§1) Splenocytes of C57BL/6 mice (n=4) were cultured with or without plate-bound anti-CD3 (1 ug/ml) and soluble anti-CD28 (2 ug/ml), in the presence of various concentrations of R96 as indicated. R96 was dissolved in PBS, and the amount of the PBS added to each culture was identical ([…]). Twenty-four hours later, cytokines in the supernatant were determined by ELISA (A-C). The percentages of dead cells in the culture were determined by flow cytometry following staining cells with annexin-V and propidium iodide (PI)(D).
# To design drugs that could disable human c-Rel binding to DNA (therefore blocking the biological activity of c-Rel), chicken c-Rel 3-D model was first humanized by replacing chicken residues with their human counterparts. The model was then minimized using the Insight II software (Accelrys, Inc). The minimized model was used to discover small molecule inhibitors that can interfere with the residues in loops L1 and L2. A small druggable cavity was identified using programs available in Insight II. This structure was designated as the L1 cavity. The L1 cavity is formed by loops L1, L2 and a helix. Residues Arg 21, Cys 26, Glu 27, Lys 110 and Lys 111 form the mouth of the L1 cavity (FIG. 2). A virtual screening approach was used to identify small molecule inhibitors that block DNA binding to the L1 cavity by perturbing these key contact residues as we previously described. From ˜50,000 drug-like molecules of available chemical libraries, about 100 hits were identified. […] These compounds fall into two structural classes, the phenylcarbamates (FIG. 2C) and sulfanyl-methaniminium-based compounds, represented by R13:
# To determine whether the c-Rel blockers identified above are effective in regulating inflammatory cell function, splenocytes or purified CD4+ splenic T cells of C57BU6 mice were treated with anti-CD3 and anti-CD28 in the presence of increasing concentrations of the compounds. Cytokine expression was determined by ELISA, flow cytometry or real-time PCR, whereas CD4 expression and cell survival were determined by flow cytometry alone. […]
# [3] = system: C57BL/6 mice immunized to induce EAE; test: EAE induced with MOG38-50 peptide, prevention and treatment; assay type: in vivo; settings: for treating ongoing EAE (after onset): i.p. daily after onset, 100 ug/mouse/injection
# [4] = system: splenocytes or CD4+ T cells of C57BL/6 mice; test: Cell survival / dead cells by flow cytometry (annexin-V and propidium iodide); assay type: cell-based; design: survival of CD4+ T cells or total splenocytes: dose or concentration left out as unconfirmed
# Protocol: as §1
# To determine whether the c-Rel blockers identified above are effective in regulating inflammatory cell function, splenocytes or purified CD4+ splenic T cells of C57BU6 mice were treated with anti-CD3 and anti-CD28 in the presence of increasing concentrations of the compounds. Cytokine expression was determined by ELISA, flow cytometry or real-time PCR, whereas CD4 expression and cell survival were determined by flow cytometry alone. […] The IC50 of R96 for IL-2 inhibition is […]. […] Because Th1 cytokine IFN-g inhibits the activity of Th2 cells, the increased IL-4 in cultures containing […] R96 could be due to the reduced IFN-g in the culture. […] In fact, c-Rel-deficient mice have reduced but not increased IgG1, IgG3 and IgE production.
# [5] = FIG. 1, concentrations ranging from 5-20 μM
# [6] = anti-CD3 treated spleen cells, 24 h, FIG. 3
Compound,"IFN-gamma inhibition [1, 5]","IL-2 inhibition [1, 5]","IL-2 production by T cells (IL-2 release assay, secondary screening) [2]",treating ongoing EAE (after onset) [3],"preventing EAE (prophylaxis) ([3]; i.p. daily from day 1 to day 13, 100 ug/mouse/injection (100 mg))","Interleukin (IL)-2 production [1, 6]","interferon-gamma production [1, 6]",IL-4 in culture ([2]; cultures containing R96),"mean disease score ([3]; seven days into the treatment after onset, FIG. 5C, control 1.83±0.16, p<0.001)",survival of CD4+ T cells or total splenocytes ([4]; highest concentration tested),"percentage of annexin-V+ and PI+ cells (dead cells) ([4]; various concentrations, 24 h)"
CC(C)(C)c1cc(NC(=O)/C(C#N)=C/c2cccc(Cl)c2Cl)c(C(N)=O)s1 [compound V],inhibited,inhibited,–,–,–,–,–,–,–,–,–
O=C(Nc1ccccc1)OCc1nccn1Cc1ccc(Cl)cc1 [R13],–,–,significantly inhibited,statistically significant; also recorded: significantly ameliorated,statistically significant,significantly inhibited,significantly inhibited,–,–,–,–
Br.N#Cc1ccc(CSC(=N)Nc2ccccc2)cc1 [R96],–,–,most potent,statistically significant; also recorded: significantly ameliorated,–,–,–,increased,0.75±0.43,does not significantly affect,No significant differences
